The test system of one series is Male NMRI mice. Briefly: Antimanic effects, sensitized amphetamine response in mice. It is filed as in vivo, mouse. The note with it: for induced locomotor activity: amphetamine-sensitised mice, amphetamine challenge 1.25 mg/kg; for baseline activity: tested doses, each alone. As for the experimental part: (§1) In all experiments, animals were maintained on a 12:12 light-dark cycle with lights on at 06:00 h. Food and water was available ad libitum. Animals were taken to the experimental laboratory in the afternoon the day before the experiment was conducted. All drug doses are listed as mg salt pr. kg. Blood-samples were collected within 30 minutes after the testing was finalised.
Repeated intermittent administration of amphetamine causes development of a sensitised response to a subsequent amphetamine challenge. This phenomenon has been proposed to model the chronic and progressive nature of bipolar disorder.
Animals: Male NMRI mice weighing 19-21 g were supplied from Harlan, the Netherland's. The animals were housed 4 pr. cage in makrolon cages (20×35 cm) with two plastic houses and nesting material for enrichment. The animals had 5 days adaptation to the animal-facility prior to the initiation the experiment.
Equipment: Makrolon cages (20×35 cm) placed in quadrates equipped with 5×8 infrared light sources and photocells spaced by 4 cm were used to record the locomotor activity of the animals. The light beams cross the cage 1.8 cm above the bottom of the cage. Recording of a motility count required interruption of adjacent light beams, thus avoiding counts induced by stationary movements of the mice.
Experimental set-up: The animals were pre-treated with either amphetamine sulphate 2.50 mg/kg (10 ml/kg s.c.) or vehicle for 5 consecutive days. After 11+/−1 days withdrawal period the animals were injected with test-drug or vehicle injection. Lithium chloride was dissolved in distilled water and injected s.c. (6 ml/kg) in dose of 40 mg/kg (0.94 mEq/kg), 30 minutes before testing. Test compound ([2-(6-fluoro-1H-indol-3-ylsulfanyl)benzyl]methyl amine L-(+)-hydrogen tatrate) was dissolved in 10% hydroxypropyl-beta-cyclodextrin and injected s.c. in doses of 0.08 and 0.4 mg/kg 60 minutes before testing. Owing to Test compound's lower affinity to rodent 5HT2A receptor with respect to the human receptor, the tested doses of Test compound was combined with a dose of MDL 100907 ([R-(+)-a-(2,3-dimethoxyphenyl)-1-[2-(4-fluorophenylethyl)]-4-piperidinem ethanol]) that achieves full occupancy of this receptor. 30 minutes before testing the animals were placed in the activity boxes for habituation. After the habituation period the mice were injected with a low dose amphetamine challenge (1.25 mg/kg or saline, 10 ml/kg) and the locomotor activity were measured for 60 minutes. The mice were dosed after the average weight of 16 animals.

The next series concerns Male Wistar rats. Briefly: Antimanic effect, amphetamine and chlordiazepoxide induced locomotor activity in rats. The series is classed as in vivo, rat. The note with it: for induced locomotor activity: amphetamine 1.2 mg/kg + chlordiazepoxide 10.0 mg/kg; for baseline activity: tested doses. As for the experimental part: Increased locomotor activity induced by an appropriate combination of amphetamine and chlordiazepoxide is a proposed animal model of mania. The induced locomotor activity can be reversed by Lithium.
as §1
Animals: Male Wistar rats weighing 160-175 g were supplied from Harlan, the Netherlands. The animals were housed 4 pr. cage in makrolon cages (20×35 cm) with one plastic house for enrichment. The rats had 5 days adaptation to the animal facility prior to the initiation of the experiment.
Equipment: Makrolon cages (20×35 cm) placed in a U-frame equipped longitudinally with 4 infrared light sources and photocells were used to record the locomotor activity of the animals. The light beams cross the cage 4 cm above the bottom of the cage. Recording of a motility count required interruption of adjacent light beams, thus avoiding counts induced by stationary movements of the rat. A thin layer of standard bedding material coved the bottom of the cage.
Chlordiazepoxide (10.0 mg/kg) was dissolved in 10% hydroxypropyl-beta-cyclodextrin and injected s.c. (5 ml/kg) immediately after the amphetamine injection.

In another series the test system is Male BALB/cByJ mice. Briefly: Mouse marble burying. The series is classed as in vivo. The following applies: mice, 0.625, 1.25 and 5 mg/kg s.c., 30 min before 30-minute test. As for the experimental part:
(§2) In all experiments, animals were maintained on a 12:12 light-dark cycle with lights on at 0600 h. Food and water were available ad libitum
For rodents, burying functions as a defensive behavior, used to lessen the intensity of a threat or the animal's vulnerability to it. Researchers have investigated defensive burying behaviour using a variety of threatening objects such as electrified prods and unpleasant tasting foods and liquids. Benign objects such as marbles and food pellets also elicit burying behaviour. Mice probably bury harmless objects because they are novel, and are therefore perceived as threatening. Acute administration of both anxiolytic and antidepressant drugs reduce the number of marbles buried in this paradigm.
Male BALB/cByJ mice (22-28 g) were housed 5/cage. Two experiments were performed. Mice received vehicle or 0.625, 1.25, or 5 mg/kg (s.c.) Test compound (see example 12). 30 minutes after injection, animals were placed individually in cages containing 20 marbles (2 rows of 10) on top of 1.5 inches of Aspen bedding. After a 30-minute test period, mice were returned to their home cages, and the number of visible marbles (less than ⅔ covered with bedding) were counted and subtracted from 20 to give number of marbles buried.

Another series is described as follows: Solubility in water. It is filed as physicochemical. The note with it: well-defined 1:1 salts, in words.
The next series has as its system Male C57B1/6 mice. Description: Stress-induced hyperthermia. The series is classed as in vivo, mouse. The following applies: chlordiazepoxide 10 mg/kg, one hour before. As for the experimental part: as §2
The stress-induced hyperthermia (SIH) test is based upon the principle that, like other mammals, mice have a natural hyperthermic response to stress. In this paradigm, the stressor is having the rectal temperature taken. This physiological response is considered to reflect the anxiety level of the animal, and is attenuated by pretreatment with anxiolytic drugs such as benzodiazepines.
Male C57B1/6 mice (18-21 g) were housed 5/cage until 1 day before the experiment, at which time they were brought to the testing room and singly-housed. Testing was conducted over a two-day period from 9-12 am. Mice received vehicle, chlordiazepoxide (10 mg/kg), or 0.02, 0.08, or 0.32 mg/kg Test compound (s.c.). One hour later, core temperature was measured with a rectal probe (T1) and each animal was returned to its cage. Ten minutes later, a second reading was obtained (T2). The difference between the two readings (T2−T1) was calculated as the measure of stress-induced hyperthermia.

Structures are written as SMILES.

For the compound `CNCc1ccccc1Sc1c[nH]c2cc(F)ccc12.O=C(O)C(O)C(O)C(=O)O` [Test compound, [2-(6-fluoro-1H-indol-3-ylsulfanyl)benzyl]methyl amine L-(+)-hydrogen tatrate], the induced locomotor activity result is on record as “no effect” in the series on Male NMRI mice (Test compound 0.08 mg/kg and 0.4 mg/kg s.c. alone); “significant attenuation” with Male Wistar rats (Test compound 0.4 mg/kg combined with MDL 100907 0.3 mg/kg); “tendency to increase the locomotor activity induced activity, but not significantly” in the series on Male Wistar rats (Test compound 0.4 mg/kg s.c. alone). The “baseline activity in saline pre-treated animals” value in the series with Male NMRI mice (mice, Test compound 0.08 and 0.4 mg/kg combined with MDL 100907 0.3 mg/kg) is on record as “significantly lowered”. Also, the baseline activity entry was “no significant effect” in the series with Male NMRI mice (mice) and “no effect” with Male Wistar rats. Also, the “numbers of marbles buried” value with Male BALB/cByJ mice was “significantly and equivalently reduced”.

For `CNCc1ccccc1Sc1c[nH]c2cc(F)ccc12.O=C(O)C(O)C(O)C(=O)O` [beta form of the L(+) hydrogen tartrate salt] [[2-(6-Fluoro-1H-indol-3-ylsulfanyl)-benzyl]-methyl-amine L-(+)-hydrogen tartrate], the “water absorbed when exposed to high relative humidity” value is “about 0.6%”.

As for `COc1cccc([C@H](O)C2CCN(CCc3ccc(F)cc3)CC2)c1OC` [MDL 100907, [R-(+)-a-(2,3-dimethoxyphenyl)-1-[2-(4-fluorophenylethyl)]-4-piperidinemethanol], reference compound], the induced locomotor activity result with Male NMRI mice (MDL 100907 0.3 mg/kg) was “significantly decreased”; in the series on Male Wistar rats (MDL 100907 0.3 mg/kg) it was “significantly reversed”. Also, the baseline activity entry in the series on Male NMRI mice (mice) is “no significant effect”; in the series with Male Wistar rats, “no effect”.

Consider `CC(C)(O)C(=O)O` [2-hydroxy isobutyric acid], for which, in the series “Solubility in water”, the solubility result is “relatively high solubility”.

As for `CNCc1ccccc1Sc1c[nH]c2cc(F)ccc12.O=C(O)C(O)C(O)C(=O)O` [alpha form of the L(+) hydrogen tartrate salt] [[2-(6-Fluoro-1H-indol-3-ylsulfanyl)-benzyl]-methyl-amine L-(+)-hydrogen tartrate], the “water absorbed when exposed to high relative humidity” value is on record as < 0.1%.

For `CNC1=Nc2ccc(Cl)cc2C(c2ccccc2)=[N+]([O-])C1` [CDP, chlordiazepoxide, reference compound], in the series with Male C57B1/6 mice, the “stress-induced hyperthermia (T2−T1)” value was “significantly reduced”.

Values taken from patent US8138220B2, “[2-(6-fluoro-1H-indol-3-ylsulfanyl)benzyl]methyl amine for the treatment of affective disorders” (H. Lundbeck A/S, priority 2006, dated 2012).
